Results published in ChEMBL document CHEMBL5726115, “Triazolo compounds” (2017).

Biological target: cAMP and cAMP-inhibited cGMP 3',5'-cyclic phosphodiesterase 10A (Homo sapiens, UniProt Q9Y233)
Experiment: Inhibition Assay: The human PDE10A full length assay was performed in 96-well micro titer plates. The reaction mixture of 50 μl contained 20 mM HEPES pH=7.5/10 mM MgCl2/0.05 mg/ml BSA (Sigma cat. #A-7906), 50 nM cGMP (Sigma, cat. #G6129) and 50 nM [3H]-cGMP (GE Healthcare, cat. #TRK392 S.A. 13.2 Ci/mmol), 3.75 ng/well PDE10A enzyme (Enzo Life Science, Lausen, Switzerland cat #SE-534) with or without a specific test compound. A range of concentrations of the potential inhibitor was used to generate data for calculating the concentration of inhibitor resulting in 50% of the effect (e.g. IC50, the concentration of the competitor inhibiting PDE10A activity by 50%). Non-specific activity was tested without the enzyme. The reaction was initiated by the addition of the substrate solution (cGMP and [3H]-cGMP) and allowed to progress for 20 minutes at room temperature. The reaction was terminated by adding 25 μl of YSi-SPA scintillation beads (GE Healthcare, cat. #RPNQ0150) in 18 mM zinc sulphate solution (stop reagent). After 1 h under shaking, the plate was centrifuged one minute at 170 g to allow beads to settle. Afterwards, radioactive counts were measured on a Perkin Elmer TopCount Scintillation plate reader.

Sequence of cAMP and cAMP-inhibited cGMP 3',5'-cyclic phosphodiesterase 10A (Q9Y233 whole entry): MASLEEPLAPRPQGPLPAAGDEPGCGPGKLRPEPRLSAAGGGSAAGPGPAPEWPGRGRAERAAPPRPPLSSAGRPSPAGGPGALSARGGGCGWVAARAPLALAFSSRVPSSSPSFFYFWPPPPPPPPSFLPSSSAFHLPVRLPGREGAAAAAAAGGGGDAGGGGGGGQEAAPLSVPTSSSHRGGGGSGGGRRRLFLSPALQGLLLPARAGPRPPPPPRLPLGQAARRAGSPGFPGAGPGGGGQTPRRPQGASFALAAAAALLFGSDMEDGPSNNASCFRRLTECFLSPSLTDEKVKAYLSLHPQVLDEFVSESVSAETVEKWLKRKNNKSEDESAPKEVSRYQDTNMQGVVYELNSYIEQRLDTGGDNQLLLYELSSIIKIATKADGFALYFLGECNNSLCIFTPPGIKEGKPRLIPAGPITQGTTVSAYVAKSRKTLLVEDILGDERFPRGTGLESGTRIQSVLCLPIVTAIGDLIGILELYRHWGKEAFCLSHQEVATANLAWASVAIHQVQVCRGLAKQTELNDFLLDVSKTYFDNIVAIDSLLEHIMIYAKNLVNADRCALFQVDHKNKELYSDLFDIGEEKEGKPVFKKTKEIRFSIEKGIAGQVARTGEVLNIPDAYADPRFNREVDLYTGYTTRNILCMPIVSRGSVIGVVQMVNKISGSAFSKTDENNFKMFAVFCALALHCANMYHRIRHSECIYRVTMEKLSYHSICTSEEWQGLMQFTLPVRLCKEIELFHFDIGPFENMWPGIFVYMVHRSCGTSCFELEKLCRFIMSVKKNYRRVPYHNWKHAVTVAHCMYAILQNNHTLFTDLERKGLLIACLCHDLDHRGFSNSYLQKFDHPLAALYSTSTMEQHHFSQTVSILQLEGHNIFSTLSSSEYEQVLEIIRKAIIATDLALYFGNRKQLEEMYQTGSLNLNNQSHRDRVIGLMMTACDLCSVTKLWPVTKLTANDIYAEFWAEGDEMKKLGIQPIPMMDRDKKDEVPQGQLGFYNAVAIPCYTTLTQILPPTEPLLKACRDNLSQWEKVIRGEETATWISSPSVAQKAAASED

| SMILES | IC50 |
| --- | --- |
| Cc1cn2nc(C)c(C)c2nc1C#Cc1nc(N2CCCC2)nn1C | 6.6 nM |
| Cc1nc2cc(C(F)(F)F)c(CCc3nc(N4CCCC4)nn3C)nn2c1C | 165 nM |
